Laboratory results: patent publication US8829027B2, “Urea derivatives of substituted nortropanes, medicaments containing such compounds and their use” (Boehringer Ingelheim International GmbH, priority 2008, dated 2014)

Biological target: T1, 11β-HSD1 (Homo sapiens, UniProt P28845)
T1 construct: detecting cortisol generated from cortisterone by human liver microsomes; from tissue; host or cells: human liver microsomes
Assay: In vitro inhibition of 11β-HSD1, HTRF detection of cortisol generated from cortisone by human liver microsomes
Format: biochemical
Conditions: compound concentration 1 μM, 100% indicates no inhibition, zero or below zero indicates complete inhibition
Description: Briefly, compounds are incubated for 1 hour at 37° C. in Tris buffer (20 mM tris, 5 mM EDTA, pH 6.0) containing NADPH (200 μM) and cortisone (80 nM). Cortisol generated in the reaction is then detected with a competitive immunoassay, involving two HTRF conjugates: cortisol linked to XL665 and anti-cortisol antibody labeled with Europium cryptate. The incubation period for detection reaction is typically 2 hours. The amount of cortisol is determined by reading the time-resolved fluorescence of the wells (Ex 320/75 nm; Em 615/8.5 nm and 665/7.5 nm). The ratio of the two emission signals is then calculated (Em665*10000/Em615). […] Each assay also contains a calibration curve with cortisol to transform the fluorescent data into cortisol concentrations. Percent inhibition (% CTL) of each compound is determined relative to the carbenoxolone signal and IC50 curves are generated.
The % CTL values of some example compounds at a concentration of 1 μM are provided in the following Table 2 wherein 100% indicates no inhibition and a value of zero or below zero indicates complete inhibition. The measurement of % CTL is described hereinbefore.

T1 sequence (P28845 whole entry): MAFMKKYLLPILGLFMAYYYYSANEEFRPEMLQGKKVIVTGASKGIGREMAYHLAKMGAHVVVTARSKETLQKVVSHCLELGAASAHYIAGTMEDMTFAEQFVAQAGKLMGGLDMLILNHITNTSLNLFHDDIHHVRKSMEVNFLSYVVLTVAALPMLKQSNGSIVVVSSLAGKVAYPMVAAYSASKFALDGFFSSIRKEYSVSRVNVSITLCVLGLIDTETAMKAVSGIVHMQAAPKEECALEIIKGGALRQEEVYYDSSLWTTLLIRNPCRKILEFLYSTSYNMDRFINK

| Structure (SMILES) | 11β-HSD1 remaining activity (% of control) [% CTL] |
| --- | --- |
| O=C(N1CCCCC1)N1[C@@H]2CC[C@H]1C[C@@H](c1ccc(F)cc1)C2 [Example 1, endo-[3-(4-Fluoro-phenyl)-8-aza-bicyclo[3.2.1]oct-8-yl]-piperidin-1-yl-methanone] | −49 |
| O=C(N1CCCC1)N1[C@@H]2CC[C@H]1C[C@@H](c1ccc(F)cc1)C2 [Example 2, endo-[3-(4-Fluoro-phenyl)-8-aza-bicyclo[3.2.1]oct-8-yl]-pyrrolidin-1-yl-methanone] | −3 |
| O=C(N1CCOCC1)N1[C@@H]2CC[C@H]1C[C@@H](c1ccc(F)cc1)C2 [Example 3, endo-[3-(4-Fluoro-phenyl)-8-aza-bicyclo[3.2.1]oct-8-yl]-morpholin-4-yl-methanone] | −29 |
| CC(=O)NC1CCN(C(=O)N2[C@@H]3CC[C@H]2C[C@@H](c2ccc(F)cc2)C3)CC1 [Example 4, endo-N-{1-[3-(4-Fluoro-phenyl)-8-aza-bicyclo[3.2.1]octane-8-carbonyl]-piperidin-4-yl}-acetamide] | 46 |
| O=C(N1CCC(O)CC1)N1[C@@H]2CC[C@H]1C[C@@H](c1ccc(F)cc1)C2 [Example 5, endo-[3-(4-Fluoro-phenyl)-8-aza-bicyclo[3.2.1]oct-8-yl]-(4-hydroxy-piperidin-1-yl)-methanone] | −46 |
| O=C(N1CCc2nc[nH]c2C1)N1[C@@H]2CC[C@H]1C[C@@H](c1ccc(F)cc1)C2 [Example 6, endo-[3-(4-Fluoro-phenyl)-8-aza-bicyclo[3.2.1]oct-8-yl]-(3,4,6,7-tetrahydro-imidazo[4,5-c]pyridin-5-yl)-methanone] | 65 |
| O=C(N1CCc2sccc2C1)N1[C@@H]2CC[C@H]1C[C@@H](c1ccc(F)cc1)C2 [Example 7, endo-(6,7-Dihydro-4H-thieno[3,2-c]pyridin-5-yl)-[3-(4-fluoro-phenyl)-8-aza-bicyclo[3.2.1]oct-8-yl]-methanone] | −57 |
| O=C(N1[C@@H]2CC[C@H]1C[C@@H](O)C2)N1[C@@H]2CC[C@H]1C[C@@H](c1ccc(F)cc1)C2 [Example 8, [endo-3-(4-Fluoro-phenyl)-8-aza-bicyclo[3.2.1]oct-8-yl]-(endo-3-hydroxy-8-aza-bicyclo[3.2.1]oct-8-yl)-methanone] | −59 |
| NC(=O)C1CCN(C(=O)N2[C@@H]3CC[C@H]2C[C@@H](c2ccc(F)cc2)C3)CC1 [Example 9, endo-1-[3-(4-Fluoro-phenyl)-8-aza-bicyclo[3.2.1]octane-8-carbonyl]-piperidine-4-carboxylic acid amide] | −49 |
| O=C(O)C1CCN(C(=O)N2[C@@H]3CC[C@H]2C[C@@H](c2ccc(F)cc2)C3)CC1 [Example 11, endo-1-[3-(4-Fluoro-phenyl)-8-aza-bicyclo[3.2.1]octane-8-carbonyl]-piperidine-4-carboxylic acid] | 4 |
| N#CC1CCN(C(=O)N2[C@@H]3CC[C@H]2C[C@@H](c2ccc(F)cc2)C3)CC1 [Example 12, endo-1-[3-(4-Fluoro-phenyl)-8-aza-bicyclo[3.2.1]octane-8-carbonyl]-piperidine-4-carbonitrile] | −27 |
| COC1CCN(C(=O)N2[C@@H]3CC[C@H]2C[C@@H](c2ccc(F)cc2)C3)CC1 [Example 13, endo-[3-(4-Fluoro-phenyl)-8-aza-bicyclo[3.2.1]oct-8-yl]-(4-methoxy-piperidin-1-yl)-methanone] | −25 |
| O=C(N1CCC(O)(C(F)(F)F)CC1)N1[C@@H]2CC[C@H]1C[C@@H](c1ccc(F)cc1)C2 [Example 14, endo-[3-(4-Fluoro-phenyl)-8-aza-bicyclo[3.2.1]oct-8-yl]-(4-hydroxy-4-trifluoromethyl-piperidin-1-yl)-methanone] | −30 |
| COC(=O)C1CCN(C(=O)N2[C@@H]3CC[C@H]2C[C@@H](c2ccc(F)cc2)C3)CC1 [Example 15, endo-1-[3-(4-Fluoro-phenyl)-8-aza-bicyclo[3.2.1]octane-8-carbonyl]-piperidine-4-carboxylic acid methyl ester] | 20 |
| CC1(O)CCN(C(=O)N2[C@@H]3CC[C@H]2C[C@@H](c2ccc(F)cc2)C3)CC1 [Example 16, endo-[3-(4-Fluoro-phenyl)-8-aza-bicyclo[3.2.1]oct-8-yl]-(4-hydroxy-4-methyl-piperidin-1-yl)-methanone] | −23 |
| O=C(N1C2CCC1CC(O)(C(F)(F)F)C2)N1[C@@H]2CC[C@H]1C[C@@H](c1ccc(F)cc1)C2 (stereo partly drawn) [Example 17, endo-[3-(4-Fluoro-phenyl)-8-aza-bicyclo[3.2.1]oct-8-yl]-(3-hydroxy-3-trifluoromethyl-8-aza-bicyclo[3.2.1]oct-8-yl)-methanone] | −11 |
| O=C(N1CCCC2(CCCNC2=O)C1)N1[C@@H]2CC[C@H]1C[C@@H](c1ccc(F)cc1)C2 (stereo partly drawn) [Example 18, endo-8-[3-(4-Fluoro-phenyl)-8-aza-bicyclo[3.2.1]octane-8-carbonyl]-2,8-diaza-spiro[5.5]undecan-1-one] | 62 |
| O=C(N1CCCC2(CCNC2=O)C1)N1[C@@H]2CC[C@H]1C[C@@H](c1ccc(F)cc1)C2 (stereo partly drawn) [Example 19, endo-7-[3-(4-Fluoro-phenyl)-8-aza-bicyclo[3.2.1]octane-8-carbonyl]-2,7-diaza-spiro[4.5]decan-1-one] | 34 |
| O=C(N1CCCC(CO)C1)N1[C@@H]2CC[C@H]1C[C@@H](c1ccc(F)cc1)C2 (stereo partly drawn) [Example 20, endo-[3-(4-Fluoro-phenyl)-8-aza-bicyclo[3.2.1]oct-8-yl]-(3-hydroxymethyl-piperidin-1-yl)-methanone] | −17 |
| O=C(N1CCC(CO)CC1)N1[C@@H]2CC[C@H]1C[C@@H](c1ccc(F)cc1)C2 [Example 21, endo-[3-(4-Fluoro-phenyl)-8-aza-bicyclo[3.2.1]oct-8-yl]-(4-hydroxymethyl-piperidin-1-yl)-methanone] | −20 |
| CC(C)(O)C1CCN(C(=O)N2[C@@H]3CC[C@H]2C[C@@H](c2ccc(F)cc2)C3)CC1 [Example 22, endo-[3-(4-Fluoro-phenyl)-8-aza-bicyclo[3.2.1]oct-8-yl]-[4-(1-hydroxy-1-methyl-ethyl)-piperidin-1-yl]-methanone] | −18 |
